Like-named read-outs stand apart in the source and are kept apart here.

The subject of this assay is HBV rcDNA. Put plainly: HepDE19 assay with bDNA quantitation of HBV rcDNA. The format is cell-based, hepatitis B virus (HBV). An outline of the steps: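 HepDE19 cells were switched to tetracycline-free medium and exposed to compound (0.5% DMSO final) for 7 days at 37° C. rcDNA was then quantified by bDNA with an HBV-specific probe set. In parallel, viability was read as ATP content (CellTiter-Glo) after 4 days on replicate plates.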

Setting [1] is: HepDE19 cells, 7 day incubation, rcDNA measured by Quantigene 2.0 bDNA assay, top concentration 25 μM; read-out: DE-19bDNA EC50.
[2] abbreviates: read-out: DE-19bDNA EC50; HepDE19 cells, 7 day incubation, rcDNA measured by Quantigene 2.0 bDNA assay, top concentration 25 μM.

As for `CC(c1c[nH]c(=O)c2cc(F)c(F)cc12)N(C)C(=O)c1cc2c([nH]1)CCC(F)(F)C2` (single isomer, unassigned) [Compound 88, N-(1-(6,7-Difluoro-1-oxo-1,2-dihydroisoquinolin-4-yl)ethyl)-5,5-difluoro-N-methyl-4,5,6,7-tetrahydro-1H-indole-2-carboxamide], the EC50 under setting [1] came to 30 nM.
As for `CC(c1c[nH]c(=O)c2cc(F)c(F)cc12)N(C)C(=O)c1cc2c([nH]1)CCC(F)(F)C2` (single isomer, unassigned) [Compound 89, N-(1-(6,7-Difluoro-1-oxo-1,2-dihydroisoquinolin-4-yl)ethyl)-5,5-difluoro-N-methyl-4,5,6,7-tetrahydro-1H-indole-2-carboxamide], the EC50 under setting [1] was determined as 1800 nM.
As to `CC(c1c[nH]c(=O)c2c(F)c(F)ccc12)N(C)C(=O)c1cc2c([nH]1)CCC(F)(F)C2` (single isomer, unassigned) [Compound 90, N-(1-(7,8-Difluoro-1-oxo-1,2-dihydroisoquinolin-4-yl)ethyl)-5,5-difluoro-N-methyl-4,5,6,7-tetrahydro-1H-indole-2-carboxamide], under setting [1], the EC50 was 370 nM.
`CC(c1c[nH]c(=O)c2c(F)c(F)ccc12)N(C)C(=O)c1cc2c([nH]1)CCC(F)(F)C2` (single isomer, unassigned) [Compound 91, N-(1-(7,8-Difluoro-1-oxo-1,2-dihydroisoquinolin-4-yl)ethyl)-5,5-difluoro-N-methyl-4,5,6,7-tetrahydro-1H-indole-2-carboxamide]: under setting [1], the EC50 turned out to be 7300 nM.
Still for that read-out and setting: the same measure for `CC(c1c[nH]c(=O)c2c(F)c(F)ccc12)N(C)C(=O)c1cc2c(Cl)cccn2c1` (single isomer, unassigned) [Compound 92, 8-Chloro-N-(1-(7,8-difluoro-1-oxo-1,2-dihydroisoquinolin-4-yl)ethyl)-N-methylindolizine-2-carboxamide]: 2700 nM.
`CC(c1c[nH]c(=O)c2c(F)c(F)ccc12)N(C)C(=O)c1cc2c(Cl)cccn2c1` (single isomer, unassigned) [Compound 93, 8-Chloro-N-(1-(7,8-difluoro-1-oxo-1,2-dihydroisoquinolin-4-yl)ethyl)-N-methylindolizine-2-carboxamide]: the EC50 under setting [1] was determined as 40 nM.
Same read-out and setting: in the case of `CC(c1c[nH]c(=O)c2cc(F)c(F)cc12)N(CCCO)C(=O)c1[nH]c2ccccc2c1Cl` (single isomer, unassigned) [Compound 94, 3-Chloro-N-(1-(6,7-difluoro-1-oxo-1,2-dihydroisoquinolin-4-yl)ethyl)-N-(3-hydroxypropyl)-1H-indole-2-carboxamide] it was 19000 nM; in that of `CC(c1c[nH]c(=O)c2cc(F)c(F)cc12)N(CCCO)C(=O)c1[nH]c2ccccc2c1Cl` (single isomer, unassigned) [Compound 95, 3-Chloro-N-(1-(6,7-difluoro-1-oxo-1,2-dihydroisoquinolin-4-yl)ethyl)-N-(3-hydroxypropyl)-1H-indole-2-carboxamide], 400 nM.
Same read-out and setting: the same measure for `CC(c1c[nH]c(=O)c2cc(F)c(F)cc12)N(C)C(=O)c1cc2cc(Cl)ccn2c1` (single isomer, unassigned) [Compound 96, 7-Chloro-N-(1-(6,7-difluoro-1-oxo-1,2-dihydroisoquinolin-4-yl)ethyl)-N-methylindolizine-2-carboxamide]: 4600 nM; for `CC(c1c[nH]c(=O)c2cc(F)c(F)cc12)N(C)C(=O)c1cc2cc(Cl)ccn2c1` (single isomer, unassigned) [Compound 97, 7-Chloro-N-(1-(6,7-difluoro-1-oxo-1,2-dihydroisoquinolin-4-yl)ethyl)-N-methylindolizine-2-carboxamide]: 90 nM; for `CC(c1c[nH]c(=O)c2cc(F)c(F)cc12)N(C)C(=O)c1cc2ccc(F)cn2c1` (single isomer, unassigned) [Compound 102, N-(1-(6,7-Difluoro-1-oxo-1,2-dihydroisoquinolin-4-yl)ethyl)-6-fluoro-N-methylindolizine-2-carboxamide]: 12000 nM.
With `CC(c1c[nH]c(=O)c2cc(F)c(F)cc12)N(C)C(=O)c1cc2ccc(F)cn2c1` (single isomer, unassigned) [Compound 103, N-(1-(6,7-Difluoro-1-oxo-1,2-dihydroisoquinolin-4-yl)ethyl)-6-fluoro-N-methylindolizine-2-carboxamide], the EC50 under setting [1] came to 30 nM.
For `CC(c1c[nH]c(=O)c2cc(F)c(F)cc12)N(C)C(=O)c1cc2cc(F)ccn2c1` (single isomer, unassigned) [Compound 108, N-(1-(6,7-Difluoro-1-oxo-1,2-dihydroisoquinolin-4-yl)ethyl)-7-fluoro-N-methylindolizine-2-carboxamide], the EC50 under setting [1] came to 20 nM.
As for `CC(c1c[nH]c(=O)c2cc(F)c(F)cc12)N(C)C(=O)c1cc2cc(F)ccn2c1` (single isomer, unassigned) [Compound 109, N-(1-(6,7-Difluoro-1-oxo-1,2-dihydroisoquinolin-4-yl)ethyl)-7-fluoro-N-methylindolizine-2-carboxamide], the EC50 under setting [1] was 3200 nM.
Consider `CC(c1c[nH]c(=O)c2cc(F)c(F)cc12)N(C)C(=O)c1cc2ccc(Cl)cn2c1` (single isomer, unassigned) [Compound 110, 6-Chloro-N-(1-(6,7-difluoro-1-oxo-1,2-dihydroisoquinolin-4-yl)ethyl)-N-methylindolizine-2-carboxamide], for which, under setting [1], the EC50 is 40 nM.
Still for that read-out and setting: the same measure for `CC(c1c[nH]c(=O)c2cc(F)c(F)cc12)N(C)C(=O)c1cc2ccc(Cl)cn2c1` (single isomer, unassigned) [Compound 111, 6-Chloro-N-(1-(6,7-difluoro-1-oxo-1,2-dihydroisoquinolin-4-yl)ethyl)-N-methylindolizine-2-carboxamide]: 1400 nM.
Turning to `CC(c1c[nH]c(=O)c2cc(F)c(F)cc12)N(C)C(=O)c1ccc(C(F)(F)F)c(F)c1` (single isomer, unassigned) [Compound 119, N-(1-(6,7-Difluoro-1-oxo-1,2-dihydroisoquinolin-4-yl)ethyl)-3-fluoro-N-methyl-4-(trifluoromethyl) benzamide], the EC50 under setting [1] was found to be 4020 nM.
The same measure, in the same setting: in the case of `CC(c1c[nH]c(=O)c2cc(F)c(F)cc12)N(C)C(=O)c1ccc(C(F)(F)F)c(F)c1` (single isomer, unassigned) [Compound 120, N-(1-(6,7-Difluoro-1-oxo-1,2-dihydroisoquinolin-4-yl)ethyl)-3-fluoro-N-methyl-4-(trifluoromethyl) benzamide] it was 20 nM; in that of `CC(c1c[nH]c(=O)c2cc(F)c(F)cc12)N(C)C(=O)c1ccc(Cl)c(F)c1` (single isomer, unassigned) [Compound 121, 4-Chloro-N-(1-(6,7-difluoro-1-oxo-1,2-dihydroisoquinolin-4-yl)ethyl)-3-fluoro-N-methylbenzamide], 5680 nM.
The same measure, in the same setting: in the case of `CC(c1c[nH]c(=O)c2cc(F)c(F)cc12)N(C)C(=O)c1ccc(Cl)c(F)c1` (single isomer, unassigned) [Compound 122, 4-Chloro-N-(1-(6,7-difluoro-1-oxo-1,2-dihydroisoquinolin-4-yl)ethyl)-3-fluoro-N-methylbenzamide] it was 40 nM; in that of `CC(c1c[nH]c(=O)c2cc(F)c(F)cc12)N(C)C(=O)c1cc(F)c(F)c(F)c1` (single isomer, unassigned) [Compound 123, N-(1-(6,7-Difluoro-1-oxo-1,2-dihydroisoquinolin-4-yl)ethyl)-3,4,5-trifluoro-N-methylbenzamide], 22400 nM.
Same read-out and setting: in the case of `CC(c1c[nH]c(=O)c2cc(F)c(F)cc12)N(C)C(=O)c1cc(F)c(F)c(F)c1` (single isomer, unassigned) [Compound 124, N-(1-(6,7-Difluoro-1-oxo-1,2-dihydroisoquinolin-4-yl)ethyl)-3,4,5-trifluoro-N-methylbenzamide] it was 190 nM.
For the compound `CC(c1c[nH]c(=O)c2cc(F)c(F)cc12)N(C)C(=O)c1cccc(C(F)F)c1` (single isomer, unassigned) [Compound 125, N-(1-(6,7-Difluoro-1-oxo-1,2-dihydroisoquinolin-4-yl)ethyl)-3-(difluoromethyl)-N-methylbenzamide], under setting [1], the EC50 stood at 24800 nM.
Same read-out and setting: the same measure for `CC(c1c[nH]c(=O)c2cc(F)c(F)cc12)N(C)C(=O)c1cccc(C(F)F)c1` (single isomer, unassigned) [Compound 126, N-(1-(6,7-Difluoro-1-oxo-1,2-dihydroisoquinolin-4-yl)ethyl)-3-(difluoromethyl)-N-methylbenzamide]: 100 nM.
For the compound `CC(c1c[nH]c(=O)c2cc(F)c(F)cc12)N(C)C(=O)c1ccccc1` (single isomer, unassigned) [Compound 127, N-(1-(6,7-Difluoro-1-oxo-1,2-dihydroisoquinolin-4-yl)ethyl)-N-methylbenzamide], under setting [2], the EC50 amounted to 3530 nM.
On the same count and under the same terms, the same measure for `CC(c1c[nH]c(=O)c2cc(F)c(F)cc12)N(C)C(=O)c1ccccc1` (single isomer, unassigned) [Compound 128, N-(1-(6,7-Difluoro-1-oxo-1,2-dihydroisoquinolin-4-yl)ethyl)-N-methylbenzamide]: above 25000 nM.
As for `CC(c1c[nH]c(=O)c2cc(F)c(F)cc12)N(C)C(=O)c1ccc(C(F)(F)F)cc1` (single isomer, unassigned) [Compound 129, N-(1-(6,7-Difluoro-1-oxo-1,2-dihydroisoquinolin-4-yl)ethyl)-N-methyl-4-(trifluoromethyl) benzamide], the EC50 under setting [1] stood at 6460 nM.
Consider `CC(c1c[nH]c(=O)c2cc(F)c(F)cc12)N(C)C(=O)c1ccc(C(F)(F)F)cc1` (single isomer, unassigned) [Compound 130, N-(1-(6,7-Difluoro-1-oxo-1,2-dihydroisoquinolin-4-yl)ethyl)-N-methyl-4-(trifluoromethyl) benzamide], for which, under setting [1], the EC50 came to 20 nM.

For orientation: EC50 means the concentration needed to bring the measured effect to its halfway point.

Values taken from patent US20230295115A1, “SUBSTITUTED ISOQUINOLINYLMETHYL AMIDES, ANALOGUES THEREOF, AND METHODS USING SAME” (priority 2020, published 2023).
